# Experimental data as given in patent US20250127905A1, “GLUTARIMIDE COMPOUND AND USE THEREOF” (MEDSHINE DISCOVERY INC., priority 2021, published 2025).
# How the values were obtained:
# [1] = tested on: imiquimod-induced psoriasis model; assay: Imiquimod-induced psoriasis model in mice: pathological score, ear thickness, spleen weight; type: in vivo, BALB/c mice; settings: Mean±SEM; for Spleen weight: D7; for Increased ear thickness: D7 relative to D0
# Method: It is to evaluate the efficacy of compounds on imiquimod-induced psoriasis model in BALB/c mice.
# Animals: BALB/c mice, male, 18 to 20 g; source: Zhejiang Vital River Laboratory Animal Technology Co., Ltd.
# (§1) Experimental grouping and administration: After acclimatization, […] male BALB/c mice were randomly divided into 5 groups (n=6 or 9) according to body weight: normal (control, G1) group, vehicle (model, G2) group, test compound low-dose (30 mg/kg, BID, G3) group, test compound medium-dose (100 mg/kg, BID, G4) group, and test compound high-dose (300 mg/kg, BID, G5) group.
# (§2) Model induction: the dorsal skin of the experimental animals was shaved (surface area=2×3 cm) before the application of imiquimod. In addition to the normal group, imiquimod cream was topically applied to the shaved back (47 mg) and left ear (15 mg) at 62 mg/mouse per day for 8 consecutive days (from D0 to D7). For administration groups (G2 to G5), the vehicle or test compound was intragastrically administered twice a day from D-1 to D6 and only once on D7. The administration volume was 10 mL/kg in each group. (Note: It is specified that the first application of imiquimod is D0; since it is administered one day earlier, the first administration is D-1).
# Clinical score: Clinical disease scores for erythema, scale, and thickness were measured daily according to a grading system, and cumulative scores were calculated.
# Ear thickness: The left ear thickness was measured on D0, D3, D5, and D7 for a total of 4 times, and the increased ear thickness on D7 relative to D0 was calculated.
# Spleen weight: The spleen weight was measured after the animals were sacrificed on D7.
# (§3) Experimental data were expressed as Mean±SEM; data were statistically analyzed using one-way ANOVA in GraphPad Prism software, and p<0.05 was considered a significant difference between the two groups.
# [2] = tested on: interleukin 17, interleukin 6, and tumor necrosis factor α; assay: Imiquimod-induced psoriasis model in mice: relative levels of skin inflammatory factors (fluorescence quantitative PCR); type: in vivo, BALB/c mice; settings: lesion skin D7, Mean±SEM
# Method: as §1, §2
# Inflammatory factors: The skin was taken from the lesion site after the animals were sacrificed on D7, and the relative levels of interleukin 17, interleukin 6, and tumor necrosis factor α were detected using fluorescence quantitative PCR.
# as §3
smiles,measurement,setting,value
O=C1CCC(c2noc3c(NC(=O)CN4CCN(C[C@H]5CC[C@H](n6cc(NC(=O)c7cnn8ccc(N9C[C@H]%10C[C@@H]9CO%10)nc78)c(C(F)F)n6)CC5)CC4)cccc23)C(=O)N1 (stereo partly drawn) [WX015],Spleen weight,[1]; 30 mg/kg BID intragastric,175.78 ± 13.01 mg
same,Increased ear thickness,[1]; 30 mg/kg BID intragastric,208 ± 6 µm
same,Pathological score,[1]; 30 mg/kg BID intragastric,20.2 ± 0.89
same,Spleen weight,[1]; 100 mg/kg BID intragastric,153.78 ± 11.67 mg
same,Increased ear thickness,[1]; 100 mg/kg BID intragastric,217 ± 5.67 µm
same,Pathological score,[1]; 100 mg/kg BID intragastric,20.5 ± 1.18
same,Spleen weight,[1]; 300 mg/kg BID intragastric,132.78 ± 3.94 mg
same,Increased ear thickness,[1]; 300 mg/kg BID intragastric,185 ± 2.68 µm
same,Pathological score,[1]; 300 mg/kg BID intragastric,19.0 ± 0.55
same,Interleukin 6 relative level,[2]; 30 mg/kg BID,8.0 ± 3.3
same,Interleukin 17 relative level,[2]; 30 mg/kg BID,102.4 ± 36.9
same,Tumor necrosis factor α relative level,[2]; 30 mg/kg BID,5.2 ± 0.7
same,Interleukin 6 relative level,[2]; 100 mg/kg BID,13.8 ± 2.3
same,Interleukin 17 relative level,[2]; 100 mg/kg BID,113.1 ± 49.4
same,Tumor necrosis factor α relative level,[2]; 100 mg/kg BID,5.2 ± 0.8
same,Interleukin 6 relative level,[2]; 300 mg/kg BID,4.7 ± 2.0
same,Interleukin 17 relative level,[2]; 300 mg/kg BID,97.3 ± 35.3
same,Tumor necrosis factor α relative level,[2]; 300 mg/kg BID,3.7 ± 0.6
